Results taken from patent US7153869B2, “Substituted amino acids as erythropoietin mimetics” (priority 1998, dated 2006).

Target: T1, EBP-Ig (N-terminal 225 amino acids of the human EPO receptor joined to an Ig heavy chain) (Homo sapiens, UniProt P19235)
T1 construct: Ig heavy chain (fusion partner); made in house; host or cells: NSO cells (secreted into conditioned media)
T1 sequence (P19235 25-250 limits assumed): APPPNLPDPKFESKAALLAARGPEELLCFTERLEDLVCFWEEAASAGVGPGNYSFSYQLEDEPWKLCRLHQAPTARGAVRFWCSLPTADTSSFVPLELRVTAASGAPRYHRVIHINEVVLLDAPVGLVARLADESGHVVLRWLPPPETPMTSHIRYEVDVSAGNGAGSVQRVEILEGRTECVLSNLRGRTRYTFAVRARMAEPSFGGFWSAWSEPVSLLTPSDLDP
Assay: Inhibition of [125I]EPO binding to immobilized EBP-Ig (EPO binding protein-Ig), scintillation Flash plate competition assay
Conditions: for % inh @ 50 μM (Inhibition of EPO binding to EBP-Ig): 50 μM test compound, average % inhibition
Description: The interaction of biotin and streptavidin is frequently employed to capture and effectively immobilize reagents useful in assay protocols and has been employed here as a simple method to capture and immobilize EBP-Ig. EBP-Ig is initially randomly modified with an amine reactive derivative of biotin to produce biotinylated-EBP-Ig. Use of streptavidin coated plates allows the capture of the biotinylated EBP-Ig on the surface of a scintillant impregnated coated well (Flash plates, NEN-DuPont). […] The amount of light produced was quantified to estimate the amount of ligand binding. The specific assay format was suitable for the multi-well plate capacity of a Packard TopCount Microplate Scintillation counter.
Biotinylated EBP-Ig was prepared as follows. EBP-Ig (3 mL, OD280 2.9) was exchanged into 50 mM sodium bicarbonate, pH 8.5 using a Centriprep 10 ultrafiltration device. The final volume of the exchanged protein was 1.2 mL (OD280 2.6, representing about 2 mg total protein). 10 μL of a 4 mg/ml solution of NHS-LC-Biotin (Pierce) was added and the reaction mixture placed on ice in the dark for two hours. Unreacted biotin was removed by exchange of the reaction buffer into PBS in a Centriprep 10 device and the protein reagent aliquoted and stored at −70° C.
All wells were adjusted to a final DMSO concentration of 5%. […] After all additions were made, the plate was covered with an adhesive top seal and placed in the dark at room temperature overnight. The next day all liquid was aspirated from the wells to limit analyte dependent quench of the signal, and the plates were counted on a Packard TOPCOUNT Microplate Scintillation Counter. […] Corrected total binding (CTB) was calculated as: TB−NSB=CTB. […] Table 1 lists the average % inhibition, and if determined the IC50 and IC30 values for compounds of Formula I, where the compound numbers refer to the compounds in the tables accompanying the preparative examples.

For COC(=O)C(COC(C)(C)C)N(CC=Cc1cccc(Oc2ccccc2)c1)CC=Cc1cccc(Oc2ccccc2)c1 (stereo not drawn) [cpd 290, N,N-bis(3-Phenoxycinnamyl)Ser(t-Bu)-OMe], the “EPO/EBP-Ig % inh @ 50 μM” value (50 μM compound, Table 16A) was 0%.
In the case of COC(=O)[C@H](CCCCN)NC/C=C/c1ccc(C(=O)O)cc1 [compound 314], the “EPO/EBP-Ig % inh @ 50 μM” value (50 μM compound, Table 18A) is reported as 12%.
In the case of CC(C)(C)OC(=O)CC(C(=O)NCCCOCCCCOCCCNC(=O)C(CC(=O)OC(C)(C)C)N(Cc1ccc(OCc2ccccc2)cc1)Cc1ccc(OCc2ccccc2)cc1)N(Cc1ccc(OCc2ccccc2)cc1)Cc1ccc(OCc2ccccc2)cc1 (stereo not drawn) [compound 241], the “EPO/EBP-Ig % inh @ 50 μM” value (Table 11, 50 μM) is reported as 2%.
CCCCNC(=O)C(CCCCNC(=O)c1ccccc1)N(C/C=C/c1ccccc1)C/C=C/c1ccccc1 (stereo not drawn) [compound 208] was tested, and the “EPO/EBP-Ig % inh @ 50 μM” value (50 μM compound, Table 10) was 22%.
For COC(=O)C(CCCCN)N(Cc1ccc(OCc2ccccc2)cc1)Cc1cccc(NC(=O)c2ccco2)c1 (stereo not drawn) [cpd 117, N-(4-Benzyloxybenzyl)-N-(3-((2-furancarbonyl)amino)benzyl)Lys-OMe], the “% inh @ 50 μM (Inhibition of EPO binding to EBP-Ig)” value (0.5 nM [125I]EPO) was 34% and the “EPO/EBP-Ig % inh @ 50 μM” value (Table 7, 50 μM) was 34%.
With Cc1ccc(Oc2cccc(/C=C/C(=O)N(Cc3cccc(Oc4ccccc4)c3)C(CCCCN)C(=O)O)c2)cc1 (stereo not drawn) [compound 287] the “EPO/EBP-Ig % inh @ 50 μM” value (50 μM compound, Table 15) was 36% and the “% inh @ 50 μM (Inhibition of EPO binding to EBP-Ig)” value (0.5 nM [125I]EPO) was 36%.
In the case of CC(C)(C)OC(=O)CC(C(=O)NCCOCCOCCNC(=O)C(CC(=O)OC(C)(C)C)N(C/C=C/c1cccc(Oc2ccc(C(C)(C)C)cc2)c1)C/C=C/c1cccc(Oc2ccc(C(C)(C)C)cc2)c1)N(C/C=C/c1cccc(Oc2ccc(C(C)(C)C)cc2)c1)C/C=C/c1cccc(Oc2ccc(C(C)(C)C)cc2)c1 (stereo not drawn) [compound 256], the “EPO/EBP-Ig % inh @ 50 μM” value (50 μM compound, Table 12) is reported as 10%.
In the case of COC(=O)[C@H](CO)NCC=Cc1cccc(Oc2ccccc2)c1 [cpd 346, N-(3-Phenoxycinnamyl)Ser-OMe], the “EPO/EBP-Ig % inh @ 50 μM” value (50 μM compound, Table 20A) is reported as 28%.
In the case of COC(=O)[C@H](CCC(=O)O)NC/C=C/c1cccc(Oc2ccc(Cl)c(Cl)c2)c1.O=C(O)C(F)(F)F [compound 328], the “EPO/EBP-Ig % inh @ 50 μM” value (50 μM compound, Table 19A) is reported as 33%.
For CC(C)(C)OC(=O)CCC(C(=O)OC(C)(C)C)N(C/C=C/c1cccc(Oc2cccc(C(F)(F)F)c2)c1)C/C=C/c1cccc(Oc2cccc(C(F)(F)F)c2)c1 (stereo not drawn) [compound 103], the “EPO/EBP-Ig % inh @ 50 μM” value (Table 6, 50 μM) was 17%.
With O=C(O)C(F)(F)F.O=C(O)CC[C@H](NC/C=C/c1ccc(-c2ccccc2)cc1)C(=O)O [compound 329] the “EPO/EBP-Ig % inh @ 50 μM” value (50 μM compound, Table 19A) was 13%.
CC(=O)O.COC(=O)[C@H](CO)N(C/C=C/c1cccc(Oc2cccc(C(F)(F)F)c2)c1)C/C=C/c1cccc(Oc2cccc(C(F)(F)F)c2)c1 [compound 297] was tested, and the “EPO/EBP-Ig % inh @ 50 μM” value (50 μM compound, Table 16A) was 0%.
In the case of COC(=O)[C@H](COC(C)(C)C)N(C/C=C/c1cccc(Oc2ccc(C(C)(C)C)cc2)c1)C/C=C/c1cccc(Oc2ccc(C(C)(C)C)cc2)c1 [compound 294], the “EPO/EBP-Ig % inh @ 50 μM” value (50 μM compound, Table 16A) is reported as 9%.
With CC(=O)O.COC(=O)[C@H](CO)N(C/C=C/c1cccc(Oc2ccc(C(C)(C)C)cc2)c1)C/C=C/c1cccc(Oc2ccc(C(C)(C)C)cc2)c1 [compound 298] the “EPO/EBP-Ig % inh @ 50 μM” value (50 μM compound, Table 16A) was 1%.
In the case of COc1cccc(CCNC(=O)C(CCCCN)N(C/C=C/c2ccccc2)C/C=C/c2ccccc2)c1 (stereo not drawn) [compound 222], the “IC30 μM (Inhibition of EPO binding to EBP-Ig)” value (0.5 nM [125I]EPO, 0–500 μM test compound) is reported as 5 µM, the “EPO/EBP-Ig % inh @ 50 μM” value (50 μM compound, Table 10) is reported as 56% and the “% inh @ 50 μM (Inhibition of EPO binding to EBP-Ig)” value (0.5 nM [125I]EPO) is reported as 56%.
For CCCNC(=O)C(CCCCN)N(C/C=C/c1ccccc1)C/C=C/c1ccccc1 (stereo not drawn) [compound 212], the “EPO/EBP-Ig % inh @ 50 μM” value (50 μM compound, Table 10) was −10%.
For CC(C)(C)OC(=O)C(CCCCNC(=O)OCc1ccccc1)N(C/C=C/c1ccccc1)C/C=C/c1ccccc1 (stereo not drawn) [compound 173], the “EPO/EBP-Ig % inh @ 50 μM” value (50 μM compound, Table 9) was 5%.
For COC(=O)[C@H](COC(C)(C)C)N(C/C=C/c1cccc(Oc2ccc(Cl)c(Cl)c2)c1)C/C=C/c1cccc(Oc2ccc(Cl)c(Cl)c2)c1 [compound 293], the “EPO/EBP-Ig % inh @ 50 μM” value (50 μM compound, Table 16A) was 14%.
In the case of CCCCC(=O)Nc1cccc(CN(Cc2ccc(OCc3ccccc3)cc2)C(CCCCN)C(=O)OC)c1 (stereo not drawn) [compound 116], the “% inh @ 50 μM (Inhibition of EPO binding to EBP-Ig)” value (0.5 nM [125I]EPO) is reported as 32% and the “EPO/EBP-Ig % inh @ 50 μM” value (Table 7, 50 μM) is reported as 32%.
